Experimental findings from US6664400B2 (dated 2003) are described below.

`O=C1[C@H]2C[C@H](F)CN2C(=O)N1c1cc(NS(=O)(=O)CCl)c(Cl)cc1F` gave a melting point of 168 to 170 °C.

The term melting point denotes the temperature, or range, at which the solid turns liquid.
